Source: patent US12612389B2, “Benzofuran-based N-acylhydrazone derivative and pharmaceutical composition comprising same” (KOREA RESEARCH INSTITUTE OF BIOSCIENCE AND BIOTECHNOLOGY, priority 2019, dated 2026)
Read-outs that look alike come from different tables or passages of the source.

Tests used:
[1] = Pharmacokinetic (PK) test; assay type: in vivo, male ICR mice; settings: for F, Mean: Oral 20 mg/kg vs intravenous 5 mg/kg, calculated using AUClast; for CL, Mean / Vd / AUC(0-inf) / AUC(0-t) / clearance / MRT inf / half-life / Cmax / Tmax: mice, n=3; for Vd / AUC(0-inf) / AUC(0-t) / clearance / MRT inf / half-life / Cmax / Tmax: male, ICR, mouse, plasma; for Vd: iv; for AUC(0-inf): read-out: AUCinf, Mean; for AUC(0-t): read-out: AUClast, Mean; for clearance: read-out: CL, Mean (converted); for MRT inf: read-out: MRTinf, Mean; for half-life: read-out: t1/2, Mean (converted)
Description: Pharmacokinetic (PK) parameters of the Example compounds according to the present invention were determined using male ICR mice as follows (n=3).
Pharmacokinetic (PK) parameters were measured by non-compartmental analysis of plasma concentration-time curves using Kinetica™ 4.4.1 (Thermo Fisher Scientific, USA). Results thereof are shown in Table below and FIGS. 5A to 5C. In Table below, “F” parameter was calculated using AUClast, “N/A” indicates the phrase not applicable, and “NC” indicates the phrase not calculated.

HeLa CCL2 tumor = assay: Anticancer effect test in human cervical cancer cell (HeLa CCL2) transplantation model; assay type: in vivo, BALB/C female nude mouse; settings: 25 mg/kg intraperitoneally, p<0.001; for tumor growth inhibition: 0-28 days, Day 28, tumor size; for reduction in tumor weight compared with solvent control: excised tumor
Description: After thawing the human […] cancer cell line HeLa CCL2 that was stored frozen in liquid nitrogen, cell culture was performed. The cells were cultured for an appropriate period in a CO2 incubator (Forma, USA) at a temperature of 37° C. and a CO2 concentration of 5%.
On the last day of culture, all cancer cells were collected and counted, and the cell concentration was adjusted to 1×10^7 cells/mL using serum free media. The cell culture solution as adjusted above was injected subcutaneously into the axillary region between the shoulder blade and the chest wall in an amount of 0.3 mL (3×10^6 cells/mouse) per BALB/C female nude mouse (5 weeks old, Nara Biotech).
Immediately prior to administration, the compounds were dissolved in a mixture of DMAC (dimethylacetamide) 20%+Tween80 5%+20% HPbCD (2-hydroxypropyl-β-cyclodextrin) 75% at an appropriate concentration and used. The prepared substances were repeatedly administered intraperitoneally in an amount of 0.2 mL (10 mL/kg) per 20 g of a mouse according to the following administration schedule. • carrier, the compound of Example 4, the compound of Example 8, and the compound of Example 15 (25 mg/kg), 0-28 days 4.3. Confirmation of Change in Tumor Size
After cancer cell transplantation, the tumor size of each animal subject was measured a total of 11 times in 3 directions using a vernier caliper from when the mean tumor size reached 57.0 mm^3 until Day 28, and calculated by the formula of length×width×height/2.
In order to test the degree of toxicity upon repeated intraperitoneal administration of the Example compound to HeLa CCL2 cancer cell transplantation nude mice, general symptoms and body weight changes of the animal subjects were observed during the administration period.
On Day 28 after drug administration, blood was collected from the mouse ophthalmic veins in 2 hours post the last administration, and the mice were killed using CO2 gas. Images of the mice were taken, and the tumor was separated and weighed on an electronic scale. After taking the images, each tumor was divided in half and fixed in liquid nitrogen and formalin, respectively. On […] after drug administration, the HeLa CCL2 tumor was excised and weighed.

Stability test in plasma [2] = assay type: in vitro ADME; set-up: Residue % (180 minutes elapsed), Mean: dose or concentration left out as unconfirmed; settings: 37° C.
Description: In order to test the stability (in vivo) of the Example compounds according to the present invention, the compounds of Examples 2, 3, 4, 8 and 15 were administered intravenously, and plasma concentrations over time were observed. In addition, procaine was used as a positive control. Plasma stability was measured three times by administering the test compound at a concentration […] to human, rat, or mouse plasma (90 μL) at 37° C. Results thereof are shown in Table below and FIGS. 3A to 3E.

Stability test in plasma [3] = assay type: in vitro ADME; settings: Rat plasma, 37° C.; for Residue % (180 minutes elapsed), Mean: 5 mM
Description: In order to test the stability (in vivo) of the Example compounds according to the present invention, the compounds of Examples 2, 3, 4, 8 and 15 were administered intravenously, and plasma concentrations over time were observed. In addition, procaine was used as a positive control. Plasma stability was measured three times by administering the test compound at a concentration of 5 mM to human, rat, or mouse plasma (90 μL) at 37° C. Results thereof are shown in Table below and FIGS. 3A to 3E.

[4] = Solubility test in administration solvent; assay type: physicochemical; settings: 2.0 mg/mL, Solvent A 20%
Description: The test substances were accurately weighed and placed in a glass vial. Then, solvent A was added in an amount corresponding to 20% of the desired final solution volume, and the mixture was completely dissolved by treatment with a vortexer and sonication. Next, solvent B in an amount corresponding to 10% or 20% of the final solution volume was added and mixed well. […] Finally, the mixture was subjected to sonication for 30 seconds. The mixed solution was prepared and used immediately before administration in the experiment. • Solvent A: Dimethylacetamide produced by SigmaAldrich • Solvent B: Cremophor EL produced by SigmaAldrich • Solvent C: 20% HPbCD ((2-Hydroxypropyl)-β-cyclodextrin produced by SigmaAldrich) in deionized water

[5] = Stability in buffer (line of the metabolic stability test); assay type: in vitro ADME
Description: (§1) The test compounds at a concentration of […] were administered in the presence or absence of NADPH (1 mM) to liver […] (0.5 mg protein/mL) of humans, rats and mice, and metabolic stability was tested at 37° C. for 30 minutes. In addition, buspirone was used as a positive control. Results thereof are shown in Table below and FIGS. 4A to 4E.

[6] = Metabolic stability test in liver microsomes; assay type: in vitro ADME; settings: 0.5 mg protein/mL, 37° C.
Description: as §1

HeLa cells = assay: Anti-proliferative activity test in HeLa cell line (MTT); assay type: cell-based; settings: Homo sapiens, 48 h, grown for 2 days, mean of 2
Description: HeLa cells (American Type Culture Collection: ATCC, USA), a human cervical cancer cell line, were seeded in a 96-well plate at 3×10^3 cells/well, and the cells were then treated with compounds of Examples or Comparative Example according to the present invention and grown for 2 days. Then, MTT (3-(4,5-dimethylthiazol-2-yl)-2,5-diphenyltetrazolium bromide) reagent was added at 10 μL/well. After 2 hours, absorbance was measured at “OD 450” and statistical values were obtained using Prism™6 program. The data shown in Table below are mean values of results obtained by repeating the analysis twice.

[7] = 5 mg/kg, Intravenous administration, 5 mg/kg, read-out: Vss, Mean
[8] = 5 mg/kg, Intravenous administration, 5 mg/kg, read-out: Vz, Mean
[9] = Intravenous administration, 5 mg/kg

Compound | F, Mean [1] | CL, Mean ([1]; Oral administration, 20 mg/kg) | Vd [1, 7] | Vd [1, 8] | AUC(0-inf) [1, 9] | AUC(0-t) [1, 9] | clearance [1, 9] | MRT inf [1, 9] | half-life [1, 9] | Cmax ([1]; Oral administration, 20 mg/kg) | Tmax ([1]; Oral administration, 20 mg/kg) | AUC(0-inf) ([1]; Oral administration, 20 mg/kg) | AUC(0-t) ([1]; Oral administration, 20 mg/kg) | MRT inf ([1]; Oral administration, 20 mg/kg) | half-life ([1]; Oral administration, 20 mg/kg) | tumor growth inhibition (HeLa CCL2 tumor) | reduction in tumor weight compared with solvent control (HeLa CCL2 tumor) | Residue % (180 minutes elapsed), Mean (Stability test in plasma [2]; Human plasma) | half-life at 5 mM (Stability test in plasma [2]; Human plasma) | Residue % (180 minutes elapsed), Mean (Stability test in plasma [2]; Mouse plasma) | other results
CCOCCn1c(Cl)c(/C=N/NC(=O)c2cc3cc(C)ccc3o2)c2ccccc21 [Example 4, (E)-N′-[(2-chloro-1-(2-ethoxyethyl)-1H-indol-3-yl]methylene}-5-methylbenzofuran-2-carbohydrazide] | 4.8% | 1152 mL/min/kg | 0.98 L/kg | 1.88 L/kg | 1500 ng·h/mL | 1480 ng·h/mL | 55.7 mL/min/kg | 17.4 min | 23.4 min | 431 ng/mL | 15 min | 295 ng·h/mL | 285 ng·h/mL | 42 min | 24 min | 56.71% | 57.1% | 49.41% | > 180 min | 60.44% | half-life at 5 mM (Stability test in plasma [2]; Mouse plasma): > 180 min; half-life at 5 mM (Stability test in plasma [3]): > 180 min; Residue % (180 minutes elapsed), Mean (Stability test in plasma [3]): 67.11%; Solubility evaluation result ([4]; Solvent B 10%, Solvent C 70% (dimethylacetamide/Cremophor EL/20% HPbCD)): Soluble; Residue (%) after culturing for 30 min [5]: 100.93 ± 11.79%; Residue (%) after culturing for 30 min ([6]; Human, +NADPH): 15.76 ± 0.89%; Residue (%) after culturing for 30 min ([6]; Human, −NADPH): 77.60 ± 1.39%; Residue (%) after culturing for 30 min ([6]; Mouse, +NADPH): 5.48 ± 0.04%; Residue (%) after culturing for 30 min ([6]; Mouse, −NADPH): 47.95 ± 2.93%; Residue (%) after culturing for 30 min ([6]; Rat, +NADPH): 3.23 ± 0.55%; Residue (%) after culturing for 30 min ([6]; Rat, −NADPH): 69.63 ± 1.94%; IC50 (HeLa cells): 180 nM
CCOCCn1c(Cl)c(/C=N/NC(=O)c2cc3cc(C)ccc3o2)c2cc(OC)ccc21 [Example 8, (E)-N′-[(2-chloro-1-(2-ethoxyethyl)-5-methoxy-1H-indol-3-yl]methylene}-5-methylbenzofuran-2-carbohydrazide] | 1.0% | 3265.3 mL/min/kg | 0.5 L/kg | 0.85 L/kg | 2390 ng·h/mL | 2380 ng·h/mL | 35 mL/min/kg | 14.4 min | 16.8 min | 93.9 ng/mL | 34.8 min | 103 ng·h/mL | 96.3 ng·h/mL | 54 min | 24 min | 38.35% | 40.5% | 26.05% | > 180 min | 74.16% | half-life at 5 mM (Stability test in plasma [2]; Mouse plasma): > 180 min; half-life at 5 mM (Stability test in plasma [3]): > 180 min; Residue % (180 minutes elapsed), Mean (Stability test in plasma [3]): 49.25%; Solubility evaluation result ([4]; Solvent B 20%, Solvent C 60% (dimethylacetamide/Cremophor EL/20% HPbCD)): Soluble; Residue (%) after culturing for 30 min [5]: 98.98 ± 2.07%; Residue (%) after culturing for 30 min ([6]; Human, +NADPH): 24.11 ± 0.46%; Residue (%) after culturing for 30 min ([6]; Human, −NADPH): 99.18 ± 1.92%; Residue (%) after culturing for 30 min ([6]; Mouse, +NADPH): 11.41 ± 2.47%; Residue (%) after culturing for 30 min ([6]; Mouse, −NADPH): 89.93 ± 6.72%; Residue (%) after culturing for 30 min ([6]; Rat, +NADPH): 4.55 ± 0.94%; Residue (%) after culturing for 30 min ([6]; Rat, −NADPH): 85.58 ± 3.34%; IC50 (HeLa cells): 82 nM
